Source: patent publication US8604034B2, “Substituted imidazo[1,2-α]pyrrolo[1,2-d]pyrazines for treating respiratory syncytial virus (RSV) infections” (Biota Scientific Management Pty Ltd., priority 2010, dated 2013)
Where two headings read alike, the source gives them in different places.

Tested on: RSV A2
Assay: RSV antiviral cytopathic effect (CPE) assay
Type: cell-based
Settings: human respiratory syncytial virus, HEp-2, 120 h, HEp2 cells infected with RSV A2 (moi ~0.01), 5 days, MTT readout
Procedure: Compounds of the invention were tested for their antiviral activity against respiratory syncytial virus. Cytopathic effect (CPE) assays were performed essentially as described in the literature (see for example Watanabe et al, 1994, J. Virological Methods, 48:257). Serial dilutions of the test compounds were made in 96 well plates. HEp2 cells (1.0×10^4 cells/well) were infected with RSV at a low multiplicity of infection (e.g. RSV A2 at an moi of ˜0.01) and added to plates to assess antiviral activity. Uninfected HEp2 cells were used to assess compound cytotoxicity. Assays were incubated for 5 days at 37° C. in a 5% CO2 atmosphere. The extent of CPE was determined via metabolism of the vital dye 3-(4,5-dimethylthiaxol-2-yl)-2,5-diphenyltetrazolium bromide (MTT). MTT (1 mg/ml) was added to each well and plates incubated for 2 hours incubation at 37° C. Wells were aspirated, iso-propanol (200 μL) was added and absorbance values read at 540/650 nm. Compound concentrations that inhibited CPE by 50% (EC50) and developed cytotoxicity (CC50) were calculated using non-linear regression analysis.
Representative mean EC50 values obtained are also provided. In the inventors' experience, replicate EC50 values usually fall within three standard deviations of the mean.

[1] = read-out: Activity Range (RSV A2 EC50)
[2] = mean EC50, read-out: RSV A2 EC50

Row | Compound | EC50 [1] [nM] | EC50 [2] [nM]
1 | Cc1ccc(C23Cn4cccc4C(=O)N2CCN3C(=O)c2cnoc2C)cc1F (centres unmarked) [Compound 14] | 50 to 99 | 94
2 | O=C(c1ccoc1)N1CCN2C(=O)c3cccn3CC12c1ccc(Cl)cc1 (centres unmarked) [Compound 15] | 50 to 99 | 56
3 | Cn1cc(C(=O)N2CCN3C(=O)c4cccn4CC23c2ccc(Cl)cc2)c(C(F)(F)F)n1 (centres unmarked) [Compound 17] | 500 to 10000 | 860
4 | O=C1c2cccn2CC2(c3ccc(Cl)cc3)N1CCN2C(=O)C1CC1 (centres unmarked) [Compound 18] | 500 to 10000 | 4100
5 | Cc1nocc1C(=O)N1CCN2C(=O)c3cccn3CC12C1CCCCC1 (centres unmarked) [Compound 19] | 50 to 99 | 65
6 | Cc1nocc1C(=O)N1CCN2C(=O)c3cccn3CC12C(C)(C)C (centres unmarked) [Compound 21] | > 10000 | 
7 | CC(=O)c1cc2n(c1)CC1(c3ccc(Cl)cc3)N(C(=O)c3cnoc3C)CCN1C2=O (centres unmarked) [Compound 24, 7-acetyl-10a-(4-chlorophenyl)-1-[(5-methyl-1,2-oxazol-4-yl)carbonyl]-2,3,10,10a-tetrahydro-1H,5H-imidazo[1,2-a]pyrrolo[1,2-d]pyrazin-5-one] | > 10000 | 
8 | Cc1nocc1C(=O)N1CCN2C(=O)c3ccc(CN4CCOCC4)n3CC12c1ccc(Cl)cc1 (centres unmarked) [Compound 25, 10a-(4-chlorophenyl)-1-[(3-methyl-1,2-oxazol-4-yl)carbonyl]-8-(morpholin-4-ylmethyl)-2,3,10,10a-tetrahydro-1H,5H-imidazo[1,2-a]pyrrolo[1,2-d]pyrazin-5-one] | 50 to 99 | 65
9 | Cc1nocc1C(=O)N1CCN2C(=O)c3cc(CN4CCOCC4)cn3CC12c1ccc(Cl)cc1 (centres unmarked) [Compound 26] | > 10000 | 
10 | Cc1nocc1C(=O)N1CCN2C(=O)c3cc(-c4cnn(C)c4)cn3CC12c1ccc(Cl)cc1 (centres unmarked) [Compound 31] | < 49 | 7.6
11 | Cc1oncc1C(=O)N1CCN2C(=O)c3ccc(-c4ccncc4)n3CC12c1ccc(Cl)cc1 (centres unmarked) [Compound 32, 10a-(4-chlorophenyl)-1-[(5-methyl-1,2-oxazol-4-yl)carbonyl]-8-(pyridin-4-yl)-2,3,10,10a-tetrahydro-1H,5H-imidazo[1,2-a]pyrrolo[1,2-d]pyrazin-5-one] | 500 to 10000 | 690
12 | Cc1nocc1C(=O)N1CCN2C(=O)c3ccc(-c4cccnc4)n3CC12c1ccc(Cl)cc1 (centres unmarked) [Compound 33] | 500 to 10000 | 3100
13 | Cc1oncc1C(=O)N1CCN2C(=O)c3cccc(=O)n3CC12c1ccc(Cl)cc1 (centres unmarked) [Compound 40] | 100 to 499 | 210
14 | Cc1cc2n(n1)CC1(c3ccc(Cl)cc3)N(C(=O)NCCc3ccccc3)CCN1C2=O (centres unmarked) [Compound 41, 10a-(4-chlorophenyl)-7-methyl-5-oxo-N-(2-phenylethyl)-2,3,10,10a-tetrahydro-1H,5H-imidazo[1,2-a]pyrazolo[1,5-d]pyrazine-1-carboxamide] | > 10000 | 
15 | Cc1cc2n(n1)CC1(c3ccc(Cl)cc3)N(C(=O)c3ccc(F)cc3)CCN1C2=O (centres unmarked) [Compound 42] | > 10000 | 
16 | Cc1cc2n(n1)CC1(c3ccc(Cl)cc3)N(C(=O)c3ccoc3)CCN1C2=O (centres unmarked) [Compound 43] | 500 to 10000 | 3400
17 | Cc1cc2n(n1)CC1(c3ccc(Cl)cc3)N(C(=O)c3cccnc3)CCN1C2=O (centres unmarked) [Compound 44] | > 10000 | 
18 | Cc1cc2n(n1)CC1(c3ccc(Cl)cc3)N(C(=O)c3ccc(F)nc3)CCN1C2=O (centres unmarked) [Compound 45] | > 10000 | 
19 | Cc1cc2n(n1)CC1(c3ccc(Cl)cc3)N(C(=O)NCc3ccccc3)CCN1C2=O (centres unmarked) [Compound 46] | > 10000 | 
20 | Cc1cc2n(n1)CC1(c3ccc(Cl)cc3)NCCN1C2=O (centres unmarked) [Compound 47] | > 10000 | 

Second part, the molecule after the results:

Row | EC50 [1] [nM] | EC50 [2] [nM] | Compound
21 | 50 to 99 | 89 | Cc1nocc1C(=O)N1CCN2C(=O)c3cccn3CC12c1ccc(OC(F)F)cc1 (centres unmarked) [Compound 1, 10a-[4-(difluoromethoxy)phenyl]-1-[(3-methyl-1,2-oxazol-4-yl)carbonyl]-2,3,10,10a-tetrahydro-1H,5H-imidazo[1,2-a]pyrrolo[1,2-d]pyrazin-5-one]
22 | < 49 | 21 | Cc1nocc1C(=O)N1CCN2C(=O)c3cccn3CC12c1ccc(F)cc1 (centres unmarked) [Compound 2]
23 | 100 to 499 | 140 | Cc1ocnc1C(=O)N1CCN2C(=O)c3cccn3CC12c1ccc(Cl)cc1 (centres unmarked) [Compound 3]
24 | < 49 | 19 | Cc1nocc1C(=O)N1CCN2C(=O)c3cccn3CC12c1ccc(Cl)cc1 (centres unmarked) [Compound 4]
25 | < 49 | 34 | Cc1nocc1C(=O)N1CCN2C(=O)c3cccn3CC12c1cccc(F)c1 (centres unmarked) [Compound 5]
26 | 50 to 99 | 52 | COc1ccc(C23Cn4cccc4C(=O)N2CCN3C(=O)c2conc2C)cc1 (centres unmarked) [Compound 6]
27 | 100 to 499 | 410 | O=C(c1cocn1)N1CCN2C(=O)c3cccn3CC12c1ccc(F)cc1 (centres unmarked) [Compound 7]
28 | 500 to 10000 | 1800 | COc1ccc(C23Cn4cccc4C(=O)N2CCN3C(=O)c2cocn2)cc1 (centres unmarked) [Compound 8]
29 | < 49 | 13 | Cc1ccc(C23Cn4cccc4C(=O)N2CCN3C(=O)c2conc2C)cc1 (centres unmarked) [Compound 9]
30 | > 10000 |  | CCN(CC)S(=O)(=O)c1ccc(C23Cn4cccc4C(=O)N2CCN3C(=O)c2conc2C)cc1 (centres unmarked) [Compound 10]
31 | 100 to 499 | 170 | Cc1nocc1C(=O)N1CCN2C(=O)c3nccn3CC12c1ccc(Cl)cc1 (centres unmarked) [Compound 11]
32 | 500 to 10000 | 7500 | Cc1nocc1C(=O)N1CCN2C(=O)c3c(C)ncn3CC12c1ccc(Cl)cc1 (centres unmarked) [Compound 12]
33 | 500 to 10000 | 1200 | Cc1nocc1C(=O)N1CCN2C(=O)c3cncn3CC12c1ccc(Cl)cc1 (centres unmarked) [Compound 13]
34 | 500 to 10000 | 980 | O=C(c1ccon1)N1CCN2C(=O)c3cccn3CC12c1ccc(Cl)cc1 (centres unmarked) [Compound 16]
35 | 500 to 10000 | 6700 | CCC12Cn3cccc3C(=O)N1CCN2C(=O)c1conc1C (centres unmarked) [Compound 20]
36 | < 49 | 2.2 | Cc1nocc1C(=O)N1CCN2C(=O)c3ccc(Cl)n3CC12c1ccc(Cl)cc1 (centres unmarked) [Compound 22, 8-chloro-10a-(4-chlorophenyl)-1-[(3-methyl-1,2-oxazol-4-yl)carbonyl]-2,3,10,10a-tetrahydro-1H,5H-imidazo[1,2-a]pyrrolo[1,2-d]pyrazin-5-one]
37 | < 49 | 8 | COc1ccc(C23Cn4c(Cl)ccc4C(=O)N2CCN3C(=O)c2conc2C)cc1 (centres unmarked) [Compound 23]
38 | 500 to 10000 | 9500 | Cc1nocc1C(=O)N1CCN2C(=O)c3cc(CN(C)C)cn3CC12c1ccc(Cl)cc1 (centres unmarked) [Compound 27]
39 | 50 to 99 | 88 | Cc1nocc1C(=O)N1CCN2C(=O)c3ccc(CO)n3CC12c1ccc(Cl)cc1 (centres unmarked) [Compound 28]
40 | 500 to 10000 | 1000 | Cc1nocc1C(=O)N1CCN2C(=O)c3cc(CO)cn3CC12c1ccc(Cl)cc1 (centres unmarked) [Compound 29]
41 | < 49 | 36 | Cc1nocc1C(=O)N1CCN2C(=O)c3cc(-c4cccnc4)cn3CC12c1ccc(Cl)cc1 (centres unmarked) [Compound 30, 10a-(4-chlorophenyl)-1-[(3-methyl-1,2-oxazol-4-yl)carbonyl]-7-(pyridin-3-yl)-2,3,10,10a-tetrahydro-1H,5H-imidazo[1,2-a]pyrrolo[1,2-d]pyrazin-5-one]
42 | 100 to 499 | 380 | COc1ccc(C23Cn4c(ccc4-c4cnn(C)c4)C(=O)N2CCN3C(=O)c2conc2C)cc1 (centres unmarked) [Compound 34]
43 | 50 to 99 | 54 | Cc1nocc1C(=O)N1CCN2C(=O)c3cccn3CC12c1ccccc1 (centres unmarked) [Compound 35, 1-[(3-methyl-1,2-oxazol-4-yl)carbonyl]-10a-phenyl-2,3,10,10a-tetrahydro-1H,5H-imidazo[1,2-a]pyrrolo[1,2-d]pyrazin-5-one]
44 | 100 to 499 | 480 | Cc1nocc1C(=O)N1CCN2C(=O)c3cccn3CC12c1ccc(N2CCCC2)cc1 (centres unmarked) [Compound 36, 1-[(3-methyl-1,2-oxazol-4-yl)carbonyl]-10a-[4-(pyrrolidin-1-yl)phenyl]-2,3,10,10a-tetrahydro-1H,5H-imidazo[1,2-a]pyrrolo[1,2-d]pyrazin-5-one]
45 | 100 to 499 | 120 | Cc1nocc1C(=O)N1CCN2C(=O)c3cccn3CC12c1ccc(C#N)cc1 (centres unmarked) [Compound 37, 4-{1-[(3-methyl-1,2-oxazol-4-yl)carbonyl]-5-oxo-2,3-dihydro-1H,5H-imidazo[1,2-a]pyrrolo[1,2-d]pyrazin-10a(10H)-yl}benzonitrile]
46 | > 10000 |  | Cc1nocc1C(=O)N1CCN2C(=O)c3cc(C(=O)N(C)C)cn3CC12c1ccc(Cl)cc1 (centres unmarked) [Compound 38, 10a-(4-chlorophenyl)-N,N-dimethyl-1-[(3-methyl-1,2-oxazol-4-yl)carbonyl]-5-oxo-2,3,10,10a-tetrahydro-1H,5H-imidazo[1,2-a]pyrrolo[1,2-d]pyrazine-7-carboxamide]
47 | < 49 | 15 | Cc1nocc1C(=O)N1CCN2C(=O)c3cccc(=O)n3CC12c1ccc(Cl)cc1 (centres unmarked) [Compound 39, 11a-(4-chlorophenyl)-1-[(3-methyl-1,2-oxazol-4-yl)carbonyl]-2,3,11,11a-tetrahydro-1H-imidazo[1,2-a]pyrido[1,2-d]pyrazine-5,9-dione]
